{
  "source": "patent US11498939B2",
  "about": "“Glucose polymers for peritoneal dialysis” (ROQUETTE FRERES, priority 2016, dated 2022)",
  "assay": "Effects of the sterilization on GDP production",
  "type": "physicochemical",
  "details": "4% solution in deionized water; sterilization at 121° C. for 15 minutes",
  "method": "In this example, the inventors studied the influence of sterilization on the production of GDPs, namely 5-hydroxymethyl furaldehyde (5-HMF), furaldehyde and 3,4-dideoxyglucosone-3-ene (3,4-DGE), of solutions using various glucose polymers or glucose.\n20 ml solutions containing 4% of each of the substances to be tested were prepared in deionized water. The GDP content was measured after sterilization at 121° C. for 15 minutes.\nThe 5-HMF and furaldehyde content was determined by liquid chromatography using 5-HMF standards (Merck—Ref. 8.206.78.001) or furaldehyde standards for the calibration respectively), and detection by UV spectrophotometry at 280 nm. For the chromatography, a column with a particle size of 9 μm, 8% crosslinking, an internal diameter of 7.8 mm and a length of 300 mm (HPX 87H column—Biorad—Ref. 125.0140) was used. The conditions were the following: eluent 5 mN H2SO4 […], flow rate of 0.8 ml/min.\nThe 3,4-DGE content was determined by liquid chromatography (using pyrazinecarboxamide (Sigma—Ref. P7136) for the calibration) and detection by UV spectrophotometry at 230 nm. For the chromatography, a column with a particle size of 5 μm, a pore size of 120 Å size, an internal diameter of 4.6 mm and a length of 15 cm (Supelcosil LC-18—Supelco—Ref. 58230) was used. The conditions were the following: elution solvent H2O/MeOH, flow rate of 1.0 ml/min.",
  "data": [
    {"smiles": "OC[C@H]1OC(O)[C@H](O)[C@@H](O)[C@@H]1O", "note": "(stereo partly shown) [glucose, anhydrous dextrose]", "values": [
      {"measurement": "GDP content after sterilization (5-HMF, furaldehyde, 3,4-DGE)", "result": "much higher than that of the glucose polymers"}
    ]}
  ]
}
